# Assays:
# [1] = system: E. coli ribonuclease P RNA; details: literature (Vioque 1989; Mikkelsen et al.); cited from earlier work
# [2] = system: strain DM46, which contains the rnpB gene cloned on a high copy plasmid; experiment: Top agar plate screen of extract dilutions, strain DM46; format: cell-based, E. coli; details: strain DM46 (multicopy rnpB)
# Experimental: (§1) Methods. Different strains of E. coli-DH5alpha (DM46 and PTZ/19R) were streaked onto bacto MacConkey agar base plate containing ampicillin at 50 μg/ml. Then a fresh single colony was grown on 5 ml NZY Ap (50 μg/ml) broth at 37° C. overnight. The next day a frozen cell from the above cells was made. 1 ml of a freshly saturated culture was added to a microcentrifuge tube containing 1 ml DMSO (7%). These cells were stored at −80° C. Cells from frozen stocks were streaked out again and one colony from each plate was transferred to 1 ml NZY(amp, 50 μg/ml) broth. The tubes were shaken at 37° C. overnight.
# (§2) Top agar (1% tryptone, 0.8% NaCl, 0.7% agar) was used to distribute cells in a thin layer over the surface of a plate. 100 μl of fresh cell was mixed with 2.5 ml top agar. The mixture was then poured into NZY AP (50 μg/ml). Microtiter dishes containing 96-well, were used to prepare serial dilutions in 10% DMSO (1:5, 1:25, 1:125, 1:625) of extracts. A multi-channel pipeting device was used to add 5 μl extract to the top agar plate. Agar plates containing extract were incubated overnight at 37° C. At the end of incubation, inhibition appeared as clear zone around the place that extract was added. Positive extracts from the initial screens were analyzed further. […]
# [3] = system: E. coli cell (19R/PTZ) strain containing a single chromosomal copy of the wildtype rnpB gene; experiment: Top agar plate screen of extract dilutions, strain 19R/PTZ; format: cell-based; details: strain 19R/PTZ (single chromosomal rnpB)
# Experimental: as §1, §2
SMILES,Inhibition of ribonuclease P RNA reaction [1],"Inhibition of growth, in words [2]","Inhibition of growth, in words [3]"
NC[C@@H]1O[C@H](O[C@H]2[C@@H](O)[C@H](O[C@@H]3[C@@H](O)[C@H](N)C[C@H](N)[C@H]3O[C@H]3O[C@H](CN)[C@@H](O)[C@H](O)[C@H]3N)O[C@@H]2CO)[C@H](N)[C@@H](O)[C@@H]1O [Neomycin B],micromolar concentrations,,
COc1ccc(C[C@H](N)C(=O)N[C@H]2[C@@H](O)[C@H](n3cnc4c(N(C)C)ncnc43)O[C@@H]2CO)cc1 [puromycin],inhibits the catalytic reaction of ribonuclease P RNA,inhibits the growth of both strains,inhibits the growth of both strains
